Reference: ChEMBL document CHEMBL1914447, “Novel orally active antimalarial thiazoles” (J Med Chem, 2011)
Values after ≈ are worked out from the molar mass of the structure shown.

Key:
[1] = Lipophilicity, log D of the compound by gradient HPLC at pH 7.4; type: physicochemical; conditions: buffer
Plasmodium falciparum [2] = assay: microbe, parasite or virus in culture; conditions: NF54
Liver microsomes [3] = assay: Metabolic stability in rat liver microsomes at 1 uM by LC-MS analysis; type: ADME, Microsome
[4] = Kinetic solubility of the compound by nephelometry at pH 6.5; type: physicochemical; conditions: buffer, read-out: Kinetic_solubility
[5] = Kinetic solubility of the compound by nephelometry at pH 2.0; type: physicochemical; conditions: buffer, read-out: Kinetic_solubility
Liver microsomes [6] = assay: Metabolic stability in human liver microsomes at 1 uM by LC-MS analysis; type: ADME, Microsome
Plasmodium falciparum [7] = assay: microbe, parasite or virus in culture; conditions: K1
[8] = Lipophilicity, log D of the compound by gradient HPLC at pH 3.0; type: physicochemical; conditions: buffer
Liver = assay: Metabolic stability in mouse liver microsomes at 1 uM by LC-MS analysis; type: ADME, Microsome
Plasmodium berghei [9] = assay: Antimalarial activity against GFP-transfected Plasmodium berghei ANKA infected in NMRI mouse assessed as reduction in parasitemia at 10 mg/kg, po administered as single dose after 72 hrs by flow cytometry; type: functional; parameters: scale not given: the % may be the effect or the level left
Plasmodium berghei [10] = assay: Antimalarial activity against GFP-transfected Plasmodium berghei ANKA infected in NMRI mouse assessed as mean survival time at 100 mg/kg, po administered as single dose; type: functional
Plasmodium berghei [11] = assay: Antimalarial activity against GFP-transfected Plasmodium berghei ANKA infected in NMRI mouse assessed as reduction in parasitemia at 100 mg/kg, po administered as single dose after 72 hrs by flow cytometry; type: functional; parameters: scale not given: the % may be the effect or the level left
Plasmodium berghei [12] = assay: Antimalarial activity against GFP-transfected Plasmodium berghei ANKA infected in po dosed NMRI mouse assessed as reduction in parasitemia administered as single dose after 72 hrs by flow cytometry; type: functional
Plasmodium berghei [13] = assay: Antimalarial activity against GFP-transfected Plasmodium berghei ANKA infected in NMRI mouse assessed as mean survival time at 10 mg/kg, po administered as single dose; type: functional
Plasmodium berghei [14] = assay: Antimalarial activity against GFP-transfected Plasmodium berghei ANKA infected in NMRI mouse assessed as reduction in parasitemia at 30 mg/kg, po administered as single dose after 72 hrs by flow cytometry; type: functional; parameters: scale not given: the % may be the effect or the level left
Plasmodium berghei [15] = assay: Antimalarial activity against GFP-transfected Plasmodium berghei ANKA infected in NMRI mouse assessed as mean survival time at 30 mg/kg, po administered as single dose; type: functional
Cytochrome P450 1A2 = biological target: T1, Cytochrome P450 1A2 (Homo sapiens, UniProt P05177); assay: Inhibition of CYP1A2-mediated phencetin o-de-ethylation in human liver microsomes by LCMS analysis; type: ADME, Microsome
T1 sequence (P05177 whole entry): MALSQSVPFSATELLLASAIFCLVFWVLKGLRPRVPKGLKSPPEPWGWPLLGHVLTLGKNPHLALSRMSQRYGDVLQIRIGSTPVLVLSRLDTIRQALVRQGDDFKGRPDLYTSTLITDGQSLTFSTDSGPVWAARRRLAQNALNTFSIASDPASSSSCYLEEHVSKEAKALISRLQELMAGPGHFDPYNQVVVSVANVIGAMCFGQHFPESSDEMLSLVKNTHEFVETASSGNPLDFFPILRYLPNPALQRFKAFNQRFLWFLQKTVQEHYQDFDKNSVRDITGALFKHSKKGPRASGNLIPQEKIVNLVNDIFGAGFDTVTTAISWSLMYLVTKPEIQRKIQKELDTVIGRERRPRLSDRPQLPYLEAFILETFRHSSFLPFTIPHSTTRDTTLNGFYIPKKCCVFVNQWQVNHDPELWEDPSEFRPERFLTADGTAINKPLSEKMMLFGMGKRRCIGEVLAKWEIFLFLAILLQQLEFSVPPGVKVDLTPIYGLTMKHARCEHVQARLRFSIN

Plasmodium berghei [16] = assay: Antimalarial activity against GFP-transfected Plasmodium berghei ANKA infected in NMRI mouse assessed as reduction in parasitemia at 200 mg/kg, po administered as single dose after 72 hrs by flow cytometry; type: functional; parameters: scale not given: the % may be the effect or the level left
[17] = Plasma protein binding in rat at 200 ng/mL; type: ADME, cell-free; conditions: read-out: PPB (converted)
Cytochrome P450 2C9 = Cytochrome P450 2C9 (Homo sapiens, UniProt P11712); assay: Inhibition of CYP2C9-mediated Tolbutamide methlyhydroxylation in human liver microsomes by LCMS analysis; type: ADME, Microsome
Cytochrome P450 2C9, sequence (P11712 whole entry): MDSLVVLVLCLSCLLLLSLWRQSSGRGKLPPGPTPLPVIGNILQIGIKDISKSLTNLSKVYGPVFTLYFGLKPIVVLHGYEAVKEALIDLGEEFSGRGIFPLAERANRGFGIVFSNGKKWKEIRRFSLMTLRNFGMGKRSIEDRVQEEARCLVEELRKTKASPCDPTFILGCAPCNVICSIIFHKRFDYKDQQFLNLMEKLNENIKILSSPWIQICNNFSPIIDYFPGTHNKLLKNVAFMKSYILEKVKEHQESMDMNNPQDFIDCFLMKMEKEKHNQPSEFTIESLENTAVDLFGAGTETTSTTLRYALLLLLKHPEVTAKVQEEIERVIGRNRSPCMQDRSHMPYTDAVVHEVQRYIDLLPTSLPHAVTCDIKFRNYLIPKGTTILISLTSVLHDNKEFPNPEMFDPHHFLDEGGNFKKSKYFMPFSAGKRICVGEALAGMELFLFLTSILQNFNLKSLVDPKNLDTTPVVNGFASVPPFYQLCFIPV

[18] = Apparent half life in Sprague-Dawley rat at 21.8 […], po; type: ADME, organism-based; conditions: in vivo, read-out: t1/2(app) (converted)
[19] = Cmax in Sprague-Dawley rat plasma at 21.8 mg/kg, po by LCMS analysis; type: ADME, organism-based; parameters: dose 21.8 mg/kg, route oral
[20] = Total clearance in Sprague-Dawley rat plasma at 4.5 mg/kg, iv; type: ADME, organism-based; parameters: dose 4.5 mg/kg, route intravenous
Plasmodium berghei [21] = assay: Antimalarial activity against GFP-transfected Plasmodium berghei ANKA infected in NMRI mouse assessed as mean survival time at 50 mg/kg, po administered as quadruple dose regimen; type: functional
[22] = Tmax in Sprague-Dawley rat at 21.8 mg/kg, po by LCMS analysis; type: ADME, organism-based; parameters: dose 21.8 mg/kg, route oral; conditions: in vivo
[23] = Equilibrium solubility of the compound by nephelometry at pH 2.0; type: physicochemical; conditions: buffer
CYP3A4/5 [24] = biological target: T2, CYP3A4/5 (Homo sapiens, UniProt P08684+P20815); assay: Inhibition of CYP3A4/5-mediated testosterone 6beta-hydroxylation in human liver microsomes by LCMS analysis; type: ADME, Microsome; conditions: probe testosterone (6beta-hydroxylation)
[25] = Plasma protein binding in mouse at 200 ng/mL; type: ADME, cell-free; conditions: read-out: PPB (converted)
[26] = Apparent half life in Sprague-Dawley rat at 4.5 […], iv; type: ADME, organism-based; conditions: in vivo, read-out: t1/2(app) (converted)
[27] = Oral bioavailability in Sprague-Dawley rat at 21.8 mg/kg; type: ADME, organism-based; conditions: in vivo
[28] = AUC (0 to infinity) in Sprague-Dawley rat plasma at 4.5 mg/kg, iv by LCMS analysis; type: ADME, organism-based; parameters: time infinity, dose 4.5 mg/kg, route intravenous
[29] = Ratio of drug level in blood to plasma of Sprague-Dawley rat at 4.5 mg/kg, iv; type: ADME, organism-based; parameters: dose 4.5 mg/kg, route intravenous; conditions: whole blood and plasma
[30] = biological target: Voltage-gated inwardly rectifying potassium channel KCNH2 (Homo sapiens, UniProt Q12809); assay: Inhibition of human ERG expressed in Chinese hamster CHL cells by perforated patch clamp assay; type: cell-based
Voltage-gated inwardly rectifying potassium channel KCNH2, sequence (Q12809 whole entry): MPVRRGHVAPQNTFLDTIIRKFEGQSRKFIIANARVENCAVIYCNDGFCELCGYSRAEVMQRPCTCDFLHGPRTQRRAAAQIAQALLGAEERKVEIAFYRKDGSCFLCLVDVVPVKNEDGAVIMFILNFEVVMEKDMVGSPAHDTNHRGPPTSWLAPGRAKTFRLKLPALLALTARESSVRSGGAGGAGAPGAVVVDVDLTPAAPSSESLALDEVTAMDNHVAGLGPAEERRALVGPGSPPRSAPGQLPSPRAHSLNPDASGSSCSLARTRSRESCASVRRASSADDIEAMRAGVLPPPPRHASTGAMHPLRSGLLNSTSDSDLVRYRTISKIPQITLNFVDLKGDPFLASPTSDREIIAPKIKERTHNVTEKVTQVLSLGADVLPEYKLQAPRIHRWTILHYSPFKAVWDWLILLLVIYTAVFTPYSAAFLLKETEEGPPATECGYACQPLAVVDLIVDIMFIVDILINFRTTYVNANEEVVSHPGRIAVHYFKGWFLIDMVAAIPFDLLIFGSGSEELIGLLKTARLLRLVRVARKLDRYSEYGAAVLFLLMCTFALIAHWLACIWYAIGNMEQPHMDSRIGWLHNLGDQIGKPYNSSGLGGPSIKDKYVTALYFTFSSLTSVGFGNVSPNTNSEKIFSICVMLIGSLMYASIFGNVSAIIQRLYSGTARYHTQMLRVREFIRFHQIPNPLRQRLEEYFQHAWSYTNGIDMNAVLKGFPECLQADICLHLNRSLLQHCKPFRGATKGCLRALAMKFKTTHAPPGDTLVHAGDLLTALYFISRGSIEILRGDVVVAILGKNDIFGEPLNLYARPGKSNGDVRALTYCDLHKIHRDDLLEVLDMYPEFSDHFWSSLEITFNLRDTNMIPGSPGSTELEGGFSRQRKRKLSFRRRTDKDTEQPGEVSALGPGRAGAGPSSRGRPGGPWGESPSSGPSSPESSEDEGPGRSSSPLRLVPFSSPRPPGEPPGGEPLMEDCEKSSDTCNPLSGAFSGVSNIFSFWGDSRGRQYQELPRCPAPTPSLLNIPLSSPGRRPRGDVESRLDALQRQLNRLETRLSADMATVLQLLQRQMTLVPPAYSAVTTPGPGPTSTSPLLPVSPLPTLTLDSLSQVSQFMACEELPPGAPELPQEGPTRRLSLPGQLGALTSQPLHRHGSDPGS

L6 = assay: Cytotoxicity against rat L6 cells assessed after 72 hrs by alamar blue staining; type: cell-based; conditions: L6, 72 h
Plasmodium berghei [31] = assay: Antimalarial activity against GFP-transfected Plasmodium berghei ANKA infected in NMRI mouse assessed as mean survival time at 200 mg/kg, po administered as single dose after 72 hrs; type: functional
[32] = AUC (0 to infinity) in Sprague-Dawley rat plasma at 21.8 mg/kg, po by LCMS analysis; type: ADME, organism-based; parameters: time infinity, dose 21.8 mg/kg, route oral
Plasmodium berghei [33] = assay: Antimalarial activity against GFP-transfected Plasmodium berghei ANKA infected in NMRI mouse assessed as reduction in parasitemia at 50 mg/kg, po administered as quadruple dose regimen after 4 days by flow cytometry; type: functional; parameters: scale not given: the % may be the effect or the level left
[34] = Plasma protein binding in human at 200 ng/mL; type: ADME, cell-free; conditions: read-out: PPB (converted)
[35] = Volume of distribution at steady state in Sprague-Dawley rat at 4.5 mg/kg, iv; type: ADME, organism-based; parameters: dose 4.5 mg/kg, route intravenous; conditions: in vivo, read-out: Vdss
[36] = Equilibrium solubility of the compound by nephelometry at pH 6.5; type: physicochemical; conditions: buffer
Cytochrome P450 2C19 = Cytochrome P450 2C19 (Homo sapiens, UniProt P33261); assay: Inhibition of CYP2C19-mediated (S)-mephenytoin 4'-hydroxylation in human liver microsomes by LCMS analysis; type: ADME, Microsome
Cytochrome P450 2C19, sequence (P33261 whole entry): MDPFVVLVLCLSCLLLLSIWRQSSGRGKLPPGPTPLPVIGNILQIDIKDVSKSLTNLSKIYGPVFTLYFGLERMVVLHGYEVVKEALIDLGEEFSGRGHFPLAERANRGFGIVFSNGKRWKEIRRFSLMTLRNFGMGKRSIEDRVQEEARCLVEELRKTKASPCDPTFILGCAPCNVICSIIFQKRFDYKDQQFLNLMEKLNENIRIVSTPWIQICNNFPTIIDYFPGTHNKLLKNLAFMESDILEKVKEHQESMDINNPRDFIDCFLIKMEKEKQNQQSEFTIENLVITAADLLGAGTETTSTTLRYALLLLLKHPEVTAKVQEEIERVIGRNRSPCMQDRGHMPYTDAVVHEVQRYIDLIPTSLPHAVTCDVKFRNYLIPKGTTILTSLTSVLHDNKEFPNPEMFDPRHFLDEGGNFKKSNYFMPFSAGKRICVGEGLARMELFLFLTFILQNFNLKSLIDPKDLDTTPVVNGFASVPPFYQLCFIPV

CYP3A4/5 [37] = biological target: T2, CYP3A4/5; assay: Inhibition of CYP3A4/5-mediated midazolam 1'-hydroxylation in human liver microsomes by LCMS analysis; type: ADME, Microsome; conditions: probe midazolam (1'-hydroxylation)
[38] = Total clearance in Sprague-Dawley rat blood at 4.5 mg/kg, iv; type: ADME, organism-based; parameters: dose 4.5 mg/kg, route intravenous; conditions: whole blood
Cytochrome P450 2D6 = Cytochrome P450 2D6 (Homo sapiens, UniProt P10635); assay: Inhibition of CYP2D6-mediated dextromethorphan O-demethylation in human liver microsomes by LCMS analysis; type: ADME, Microsome
Cytochrome P450 2D6, sequence (P10635 whole entry): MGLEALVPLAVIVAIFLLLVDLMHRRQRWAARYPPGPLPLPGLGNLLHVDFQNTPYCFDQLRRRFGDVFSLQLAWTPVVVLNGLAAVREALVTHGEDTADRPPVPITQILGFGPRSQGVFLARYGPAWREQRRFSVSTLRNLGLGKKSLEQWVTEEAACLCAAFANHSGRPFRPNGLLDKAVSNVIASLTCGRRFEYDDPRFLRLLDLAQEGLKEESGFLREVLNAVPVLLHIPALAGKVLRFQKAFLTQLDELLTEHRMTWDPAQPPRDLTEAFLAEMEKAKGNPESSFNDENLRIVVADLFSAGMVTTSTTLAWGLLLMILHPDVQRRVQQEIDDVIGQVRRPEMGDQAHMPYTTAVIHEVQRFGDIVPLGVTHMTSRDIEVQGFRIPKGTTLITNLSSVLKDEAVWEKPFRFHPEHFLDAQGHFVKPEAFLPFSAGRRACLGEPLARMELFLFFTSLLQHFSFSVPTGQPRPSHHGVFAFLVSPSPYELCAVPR

CC(=O)NCc1csc(NC(=O)c2cc(C(C)(C)C)nn2Cc2ccccc2)n1
chromatographic logD [1]: 3.3
IC50 (Plasmodium falciparum [2]): 6.24 µM
Stability (Liver microsomes [3]): Unstable
solubility kinetic [4]: 12.5 µg/mL (≈ 30.4 µM)
solubility kinetic [5]: 12.5 µg/mL (≈ 30.4 µM)
Stability (Liver microsomes [6]): Unstable
IC50 (Plasmodium falciparum [7]): 4.27 µM
chromatographic logD [8]: 3.3
Stability (Liver): Unstable

CN(C)Cc1csc(NC(=O)c2cc(C(C)(C)C)nn2Cc2ccccc2)n1
chromatographic logD [1]: 4.2
IC50 (Plasmodium falciparum [2]): 2.41 µM
Stability (Liver microsomes [3]): Unstable
solubility kinetic [4]: 25 µg/mL (≈ 62.9 µM)
solubility kinetic [5]: > 100 µg/mL
Stability (Liver microsomes [6]): Unstable
IC50 (Plasmodium falciparum [7]): 1.48 µM
chromatographic logD [8]: 2.6
Stability (Liver): Unstable

CC(C)(C)c1cc(C(=O)Nc2cccnc2)n(Cc2ccccc2)n1
chromatographic logD [1]: 3.8
IC50 (Plasmodium falciparum [2]): 4.99 µM
Stability (Liver microsomes [3]): Unstable
solubility kinetic [4]: 6.3 µg/mL (≈ 18.8 µM)
solubility kinetic [5]: > 100 µg/mL
Stability (Liver microsomes [6]): Unstable
IC50 (Plasmodium falciparum [7]): 6.45 µM
chromatographic logD [8]: 3.5
Stability (Liver): Unstable

CC(C)(C)c1cc(C(=O)Nc2ccccc2)n(Cc2ccccc2)n1
chromatographic logD [1]: 4.7
IC50 (Plasmodium falciparum [2]): 7.92 µM
Stability (Liver microsomes [3]): Unstable
solubility kinetic [4]: 1.6 µg/mL (≈ 4.8 µM)
solubility kinetic [5]: 1.6 µg/mL (≈ 4.8 µM)
Stability (Liver microsomes [6]): Unstable
IC50 (Plasmodium falciparum [7]): 11 µM
chromatographic logD [8]: 4.7
Stability (Liver): Unstable

CC(C)(C)c1cc(C(=O)Nc2ccncc2)n(Cc2ccccc2)n1
chromatographic logD [1]: 4
IC50 (Plasmodium falciparum [2]): 3.88 µM
Stability (Liver microsomes [3]): Unstable
solubility kinetic [4]: 6.3 µg/mL (≈ 18.8 µM)
solubility kinetic [5]: > 100 µg/mL
Stability (Liver microsomes [6]): Unstable
IC50 (Plasmodium falciparum [7]): 7.05 µM
chromatographic logD [8]: 2.6
Stability (Liver): Unstable

CCN(CC)CCCC(C)Nc1ccnc2cc(Cl)ccc12 (stereo not given) [CHLOROQUINE]
Activity (Plasmodium berghei [9]): 99.5%
MSD (Plasmodium berghei [10]): 12 days
Activity (Plasmodium berghei [11]): >99.9%
ED50 (Plasmodium berghei [12]): 1.9 mg/kg
ED90 (Plasmodium berghei [12]): 4.2 mg/kg
MSD (Plasmodium berghei [13]): 7 days
Activity (Plasmodium berghei [14]): 99.7%
MSD (Plasmodium berghei [15]): 9 days

CC(C)(C)c1cc(C(=O)Nc2nc(CN)cs2)n(Cc2ccccc2)n1
IC50 (Cytochrome P450 1A2): 1.5 µM
Activity (Plasmodium berghei [16]): 99.4%
fraction unbound at 200 ng/mL [17]: 0.029
chromatographic logD [1]: 3.5
IC50 (Cytochrome P450 2C9): 10 µM
half-life [18]: 3.1 h
Cmax [19]: 1600 nM
IC50 (Plasmodium falciparum [2]): 0.07 µM
clearance [20]: 42.6 mL/min/kg
Stability (Liver microsomes [3]): Stable
MSD (Plasmodium berghei [21]): 9 days
Tmax [22]: 3.25 h
solubility [23]: 4930 µg/mL (≈ 13300 µM)
IC50 (CYP3A4/5 [24]): > 30 µM
Activity (Plasmodium berghei [9]): <40%
fraction unbound at 200 ng/mL [25]: 0.021
half-life [26]: 3.7 h
bioavailability [27]: 50.4%
MSD (Plasmodium berghei [10]): 6 days
AUC(0-inf) [28]: 4.82 µM·h
blood plasma ratio [29]: 1.1
Stability (Liver microsomes [6]): Stable
IC50 (Plasmodium falciparum [7]): 0.08 µM
Activity (Plasmodium berghei [11]): 94%
IC50 [30]: 3.7 µM
ED50 (Plasmodium berghei [12]): 37 mg/kg
ED90 (Plasmodium berghei [12]): 86 mg/kg
IC50 (L6): 4.9 µM
MSD (Plasmodium berghei [13]): 3 days
MSD (Plasmodium berghei [31]): 8 days
chromatographic logD [8]: 2.4
Stability (Liver): Stable
AUC(0-inf) [32]: 11.8 µM·h
Activity (Plasmodium berghei [14]): <40%
Activity (Plasmodium berghei [33]): 99.5%
fraction unbound at 200 ng/mL [34]: 0.06
MSD (Plasmodium berghei [15]): 6 days
Vd [35]: 10.1 L/kg
solubility [36]: 142 µg/mL (≈ 385 µM)
IC50 (Cytochrome P450 2C19): 15 µM
IC50 (CYP3A4/5 [37]): > 30 µM
clearance [38]: 39.1 mL/min/kg
IC50 (Cytochrome P450 2D6): 0.4 µM

CC(C)(C)c1cc(C(=O)Nc2nc(CO)cs2)n(Cc2ccccc2)n1
chromatographic logD [1]: 3.4
IC50 (Plasmodium falciparum [2]): 0.71 µM
Stability (Liver microsomes [3]): Unstable
solubility kinetic [4]: 3.1 µg/mL (≈ 8.37 µM)
solubility kinetic [5]: 12.5 µg/mL (≈ 33.7 µM)
Stability (Liver microsomes [6]): Unstable
IC50 (Plasmodium falciparum [7]): 0.67 µM
chromatographic logD [8]: 3.5
Stability (Liver): Unstable
